Values belong to the compound of their own block, whether it stands above or below them.
Key:
Assay type in all cases: biochemical
[1] = tested on: collagenase from Clostridium haemolyticum; test: Inhibition of collagenase activity (FALGPA substrate); settings: 100 µg/mL (extract in glycerol; EGCG standard at 100 µg/mL)
Protocol: The enzymatic method for the determination of collagenase (EC 3.4.24.3) using FALGPA (N-(3-[2-furyl]acryloyl)-Leu-Gly-Pro-Ala) as substrate for collagenase, which was dissolved in 50 mM Tricine buffer (pH 7.5) at an initial concentration of 0.8 U/mL, was used for the study. FALGPA was dissolved in Tricine buffer to 2 mM. Various concentrations were prepared from the lyophilised extract of Example 1 by dissolving in glycerol and incubating with the enzyme for 15 minutes before adding the substrate to start the reaction. The final reaction mixture (150 µL) contained Tricine buffer, 0.8 mM of FALGPA, 0.1 U of collagenase and the extract at appropriate concentration. Epigallocatechin gallate (EGCG; Supelco) at the concentration of 100 µg/mL was used as a standard. The absorbance at wavelength of λ=345 nm was measured immediately after substrate addition and then continuously for 20 minutes.

[2] = target: T1, porcine pancreatic elastase (Sus scrofa, UniProt P00772); test: Inhibition of elastase activity (AAAPVN substrate); settings: 100 µg/mL (extract in glycerol; EGCG standard at 100 µg/mL)
T1 construct: purchased Sigma-Aldrich
Protocol: The method using porcine pancreatic elastase (PE - E.C.3.4.21.36; Sigma-Aldrich) was used for the study, which was dissolved in distilled water to prepare a stock solution with a concentration of 3.33 mg/mL. The substrate […] (AAAPVN; Sigma-Aldrich) was dissolved in 1.6 mM Tris-HCl buffer (pH 8.0). The extract of Example 1 dissolved in glycerol (concentrations of 5-100 µg/mL) was incubated with the enzyme for 15 minutes before adding the substrate to start the reaction. The final reaction mixture in the well of the 96-well plate (total volume 200 µL) contained buffer, 0.8 mM of AAAPVN, 1 µg/mL of elastase and 25 µL of extract at the appropriate concentration. Epigallocatechin gallate (EGCG; Supelco) at the concentration of 100 µg/mL was used as a standard. Negative controls were performed using water. Absorbance values were measured immediately after substrate addition and then after 20 minutes at wavelength of λ=410 nm.

[3] = target: T2, soybean lipoxygenase (Glycine max, UniProt P08170); test: Anti-inflammatory properties, lipoxygenase inhibition; settings: positive control, concentration not given
T2 construct: purchased Sigma-Aldrich Chemie GmbH, Steinheim, Germany
T2 sequence (P08170 1-839): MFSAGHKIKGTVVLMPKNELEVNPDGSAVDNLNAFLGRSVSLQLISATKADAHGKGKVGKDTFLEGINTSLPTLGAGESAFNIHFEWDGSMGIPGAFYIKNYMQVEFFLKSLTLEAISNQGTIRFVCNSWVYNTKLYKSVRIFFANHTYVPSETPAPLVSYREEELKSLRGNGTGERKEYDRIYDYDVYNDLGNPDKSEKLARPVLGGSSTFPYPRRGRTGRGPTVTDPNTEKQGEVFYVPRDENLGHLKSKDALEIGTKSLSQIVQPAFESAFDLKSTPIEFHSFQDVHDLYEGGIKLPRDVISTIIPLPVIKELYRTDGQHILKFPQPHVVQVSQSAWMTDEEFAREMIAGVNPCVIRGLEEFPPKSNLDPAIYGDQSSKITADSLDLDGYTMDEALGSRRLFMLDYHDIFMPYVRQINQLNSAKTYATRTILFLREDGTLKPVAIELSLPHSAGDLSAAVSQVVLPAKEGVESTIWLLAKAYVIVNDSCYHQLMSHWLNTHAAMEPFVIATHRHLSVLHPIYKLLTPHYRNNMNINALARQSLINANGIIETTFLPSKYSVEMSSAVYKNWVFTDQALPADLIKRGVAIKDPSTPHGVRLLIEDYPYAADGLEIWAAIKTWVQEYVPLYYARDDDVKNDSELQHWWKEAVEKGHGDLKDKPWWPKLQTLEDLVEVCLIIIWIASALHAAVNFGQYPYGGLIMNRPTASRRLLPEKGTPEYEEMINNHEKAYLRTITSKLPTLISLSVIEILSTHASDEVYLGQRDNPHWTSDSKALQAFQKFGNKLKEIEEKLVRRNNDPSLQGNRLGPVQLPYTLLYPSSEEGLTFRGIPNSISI
Protocol: The study of anti-inflammatory activity of the extract of Example 1 was assessed on the basis of lipoxygenase inhibition using a spectrophotometric method in 96-well plates. For this purpose, 100 µL of various concentrations of extract solution in potassium phosphate buffer (pH = 8.5), 50 µL of soybean lipoxygenase solution (LOX; 167 U/mL; Sigma-Aldrich Chemie GmbH, Steinheim, Germany) in potassium phosphate buffer (pH = 8.5), and finally 50 µL of linoleic acid solution (LA; 134 µM; Sigma-Aldrich Chemie GmbH, Steinheim, Germany) were added to the wells. Changes in absorbance at 234 nm were then measured for a period of 25 minutes with intervals of 30 seconds. Indomethacin (Sigma-Aldrich) was used as a positive control. The activity of the extract was calculated as the percentage of LOX enzyme activity (% of activity) in relation to the maximal activity (negative control - solution without studied extract) after subtracting the absorbance of the extract at 234 nm in all cases. Absorbance values at the 10th minute of the reaction were used for the calculations.

[4] = tested on: fungal tyrosinase; test: Inhibition of fungal tyrosinase activity (L-DOPA substrate); settings: standard at 100 µL/mL
Protocol: The tyrosinase (EC 1.14.18.1, 25 KU, fungal tyrosinase, Sigma-Aldrich) inhibitory effect was measured using L-3,4-dihydroxyphenylalanine (L-DOPA, Supelco) as a substrate. To perform it, various concentrations of the studied extract (20 µL), tyrosinase solution (200 U/mL, 40 µL) and phosphate buffer (100 µL, 50 mM, pH 6.5) were applied to a 96-well plate, and then incubated for 15 minutes at 25°C. The reaction was started with the addition of L-DOPA (40 µL) and incubated for a further 15 minutes, after which the absorbance was measured at wavelength of λ=475 nm compared to the control without the inhibitor. In the control sample, representing 100% of enzyme activity, phosphate buffer was added instead of the extract. Tyrosinase inhibitory activity was determined by comparing the enzyme activity in samples with and without the assessed inhibitor. Kojic acid (Supelco) at a concentration of 100 µL/mL was used as a standard.

T1 sequence (P00772 27-266): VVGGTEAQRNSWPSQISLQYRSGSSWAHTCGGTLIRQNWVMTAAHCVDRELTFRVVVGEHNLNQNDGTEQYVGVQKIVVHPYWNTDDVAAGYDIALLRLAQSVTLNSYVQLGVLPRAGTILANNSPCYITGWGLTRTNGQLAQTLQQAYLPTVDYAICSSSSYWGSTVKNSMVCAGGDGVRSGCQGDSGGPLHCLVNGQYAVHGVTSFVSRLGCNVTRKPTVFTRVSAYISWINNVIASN

SMILES: O=C(O[C@@H]1Cc2c(O)cc(O)cc2O[C@@H]1c1cc(O)c(O)c(O)c1)c1cc(O)c(O)c(O)c1 [EGCG, Epigallocatechin gallate]
- Collagenase inhibition (%) [1]: 84.45%
- inhibition at 100 µg/mL [2]: 92.2%

- Inhibition of LOX activity [%] [3]: 99.80%
SMILES: COc1ccc2c(c1)c(CC(=O)O)c(C)n2C(=O)c1ccc(Cl)cc1 [Indomethacin]

- Tyrosinase inhibition [%] [4]: 61.17%
SMILES: O=c1cc(CO)occ1O [kojic acid]

Source: patent EP4378448B1, “EXTRACT OF FLOWERS, LEAVES AND/OR SEED PODS OF IMPATIENS AND LEAVES OF PANDANUS, IN DRIED AND LIQUID FORM, A METHOD OF ITS OBTAINING AND USE THEREOF” (PBCLABS Sp. z o.o., priority 2022, dated 2024)
